# Measurements published in PMC10728895, “Stapled Phd Peptides Inhibit Doc Toxin Induced Growth Arrest in Salmonella” (ACS Chemical Biology, 2023).
# Positions of bridges follow the written chain, without caps; N, C: chain ends. Non-standard residues stand in square brackets, D forms with d. Residues, ends and D or L forms follow the SMILES beside them. S5 = C=CCCC[C@](C)(N)C(=O)O; Nle = CCCC[C@H](N)C(=O)O
# Test system: DocSTm toxin
# Details: DocSTm 5 μM, peptide 50 μM, SYPRO Orange 3×, 20 mM K2HPO4, 50 mM (NH4)2SO4, pH 8.0; average Tm with peptide minus average Tm of free DocSTm; mean ± SD
# Experimental: The thermal shift assay was performed using a Mx3005P qPCR System (Agilent) collecting fluorescence data with a temperature ramp of 25 to 95 °C. Samples were prepared in a buffer containing 20 mM K2HPO4 and 50 mM (NH4)2SO4 at pH 8.0, with a final concentration of recombinant Doc protein at 5 μM and Phd peptides at 50 μM. SYPRO Orange dye (Sigma-Aldrich, 5000X stock in DMSO) was used to monitor protein denaturation in a final concentration of 3×. The final sample volume was 20 μL. Each condition was prepared in triplicate in each independent experiment. The melting curves were plotted using GraphPad Prism 9 (GraphPad Software, USA), and the melting temperatures were obtained by fitting the sigmoidal section of the curves to a Boltzmann sigmoid function. For the calculation of thermal shifts ΔTm, the average melting temperature of free DocSTm toxin as determined in the respective peptide measurement cycles was subtracted from the average melting temperature of DocSTm in the presence of the peptide (Table S3).
row,Compound,ΔTm (thermal shift) of DocSTm in the presence of peptide
1,CCCC[C@H](NC(=O)[C@H](Cc1c[nH]c2ccccc12)NC(C)=O)C(=O)N[C@@H](CCCNC(=N)N)C(=O)N[C@@H](CCCNC(=N)N)C(=O)N[C@@H](CCC(=O)O)C(=O)N[C@@H](Cc1ccccc1)C(=O)N[C@@H](CCCNC(=N)N)C(=O)N[C@@H](CCCNC(=N)N)C(=O)N[C@H](C(=O)N[C@@H](CCCC)C(=O)N[C@@H](CCCNC(=N)N)C(=O)N[C@H](C(=O)N[C@@H](Cc1c[nH]cn1)C(=O)NCC(=O)N[C@@H](CC(N)=O)C(=O)N[C@@H](CCC(=O)O)C(=O)N[C@@H](CC(C)C)C(=O)N[C@@H](CCCNC(=N)N)C(=O)N[C@@H](CCC(=O)O)C(=O)N[C@@H](CC(C)C)C(=O)N[C@@H](C)C(=O)N[C@@H](CC(=O)O)C(=O)N[C@@H](CCCCN)C(=O)O)C(C)C)[C@@H](C)CC [Peptide 14] (Ac-W[Nle]RREFRRI[Nle]RVHGNELRELADK-OH),11–13 °C
2,CCCC[C@H](NC(=O)[C@H](Cc1c[nH]c2ccccc12)NC(C)=O)C(=O)N[C@@H](CCCNC(=N)N)C(=O)N[C@@H](CCCNC(=N)N)C(=O)N[C@@H](CCC(=O)O)C(=O)N[C@@H](Cc1ccccc1)C(=O)N[C@@H](CCCNC(=N)N)C(=O)N[C@@H](CCCNC(=N)N)C(=O)N[C@H](C(=O)N[C@@H](CCCC)C(=O)N[C@@H](CCCNC(=N)N)C(=O)N[C@H](C(=O)N[C@@H](Cc1c[nH]cn1)C(=O)NCC(=O)N[C@@H](CCCNC(=N)N)C(=O)N[C@@H](CCC(=O)O)C(=O)N[C@@H](CC(C)C)C(=O)N[C@@H](CCCNC(=N)N)C(=O)N[C@@H](CCC(=O)O)C(=O)N[C@@H](CC(C)C)C(=O)N[C@@H](C)C(=O)N[C@@H](CC(=O)O)C(=O)N[C@@H](CCCCN)C(=O)O)C(C)C)[C@@H](C)CC [Peptide 15] (Ac-W[Nle]RREFRRI[Nle]RVHGRELRELADK-OH),11–13 °C

# Same assay, conditions: DocSTm 5 μM, peptide 50 μM, pH 8.0; average ± SD, replicates 3-48 (Table S3)
row,Compound,Average Tm of DocSTm in the presence of peptide
1,CCCC[C@H](NC(=O)[C@H](Cc1c[nH]c2ccccc12)NC(C)=O)C(=O)N[C@@H](CC(=O)O)C(=O)N[C@@H](CC(=O)O)C(=O)N[C@@H](CCC(=O)O)C(=O)N[C@@H](Cc1ccccc1)C(=O)N[C@@H](C)C(=O)N[C@@H](C)C(=O)N[C@H](C(=O)N[C@@H](CCCC)C(=O)N[C@@H](C)C(=O)N[C@H](C(=O)N[C@@H](Cc1c[nH]cn1)C(=O)NCC(=O)N[C@@H](CC(N)=O)C(=O)N[C@@H](CCC(=O)O)C(=O)N[C@@H](CC(C)C)C(=O)N[C@@H](CCCNC(=N)N)C(=O)N[C@@H](CCC(=O)O)C(=O)N[C@@H](CC(C)C)C(=O)N[C@@H](C)C(=O)N[C@@H](CCCNC(=N)N)C(=O)N[C@@H](CCCCN)C(=O)O)C(C)C)[C@@H](C)CC [Peptide 13] (Ac-W[Nle]DDEFAAI[Nle]AVHGNELRELARK-OH),72.7 ± 0.4 °C
2,CCCC[C@H](NC(=O)[C@H](Cc1c[nH]c2ccccc12)NC(C)=O)C(=O)N[C@@H](CCCNC(=N)N)C(=O)N[C@@H](CCCNC(=N)N)C(=O)N[C@@H](CCC(=O)O)C(=O)N[C@@H](Cc1ccccc1)C(=O)N[C@@H](CCCNC(=N)N)C(=O)N[C@@H](CCCNC(=N)N)C(=O)N[C@H](C(=O)N[C@@H](CCCC)C(=O)N[C@@H](CCCNC(=N)N)C(=O)N[C@H](C(=O)N[C@@H](Cc1c[nH]cn1)C(=O)NCC(=O)N[C@@H](CC(N)=O)C(=O)N[C@@H](CCC(=O)O)C(=O)N[C@@H](CC(C)C)C(=O)N[C@@H](CCCNC(=N)N)C(=O)N[C@@H](CCC(=O)O)C(=O)N[C@@H](CC(C)C)C(=O)N[C@@H](C)C(=O)N[C@@H](CC(=O)O)C(=O)N[C@@H](CCCCN)C(=O)O)C(C)C)[C@@H](C)CC [Peptide 14] (Ac-W[Nle]RREFRRI[Nle]RVHGNELRELADK-OH),56.0 ± 0.1 °C
3,CCCC[C@H](NC(=O)[C@H](Cc1c[nH]c2ccccc12)NC(C)=O)C(=O)N[C@@H](CCCNC(=N)N)C(=O)N[C@@H](CCCNC(=N)N)C(=O)N[C@@H](CCC(=O)O)C(=O)N[C@@H](Cc1ccccc1)C(=O)N[C@@H](CCCNC(=N)N)C(=O)N[C@@H](CCCNC(=N)N)C(=O)N[C@H](C(=O)N[C@@H](CCCC)C(=O)N[C@@H](CCCNC(=N)N)C(=O)N[C@H](C(=O)N[C@@H](Cc1c[nH]cn1)C(=O)NCC(=O)N[C@@H](CCCNC(=N)N)C(=O)N[C@@H](CCC(=O)O)C(=O)N[C@@H](CC(C)C)C(=O)N[C@@H](CCCNC(=N)N)C(=O)N[C@@H](CCC(=O)O)C(=O)N[C@@H](CC(C)C)C(=O)N[C@@H](C)C(=O)N[C@@H](CC(=O)O)C(=O)N[C@@H](CCCCN)C(=O)O)C(C)C)[C@@H](C)CC [Peptide 15] (Ac-W[Nle]RREFRRI[Nle]RVHGRELRELADK-OH),57.8 ± 0.7 °C
4,CCCC[C@H](NC(=O)[C@H](Cc1c[nH]c2ccccc12)NC(C)=O)C(=O)N[C@@H](CCCNC(=N)N)C(=O)N[C@@H](CC(N)=O)C(=O)N[C@@H](CCC(N)=O)C(=O)N[C@@H](Cc1ccccc1)C(=O)N[C@@H](C)C(=O)N[C@@H](C)C(=O)N[C@H](C(=O)N[C@@H](CCCC)C(=O)N[C@@H](CCCNC(=N)N)C(=O)N[C@H](C(=O)N[C@@H](Cc1c[nH]cn1)C(=O)NCC(=O)N[C@@H](CC(N)=O)C(=O)N[C@@H](CCC(N)=O)C(=O)N[C@@H](CC(C)C)C(=O)N[C@@H](CCCNC(=N)N)C(=O)N[C@@H](CCC(=O)O)C(=O)N[C@@H](CC(C)C)C(=O)N[C@@H](C)C(=O)N[C@@H](CC(N)=O)C(=O)N[C@@H](CCCCN)C(=O)O)C(C)C)[C@@H](C)CC [Peptide 22] (Ac-W[Nle]RNQFAAI[Nle]RVHGNQLRELANK-OH),54.7 ± 3.1 °C
5,CCCC[C@H](NC(=O)[C@H](Cc1c[nH]c2ccccc12)NC(C)=O)C(=O)N[C@@H](CCCNC(=N)N)C(=O)N[C@@H](CC(N)=O)C(=O)N[C@@H](CCC(N)=O)C(=O)N[C@@H](Cc1ccccc1)C(=O)N[C@@H](C)C(=O)N[C@@H](C)C(=O)N[C@H](C(=O)N[C@@H](CCCC)C(=O)N[C@@H](CCCNC(=N)N)C(=O)N[C@H](C(=O)N[C@@H](Cc1c[nH]cn1)C(=O)NCC(=O)N[C@@]1(C)CCCC=CCCC[C@@](C)(C(=O)N[C@@H](CC(C)C)C(=O)N[C@@H](C)C(=O)N[C@@H](CC(N)=O)C(=O)N[C@@H](CCCCN)C(=O)O)NC(=O)[C@H](CCCNC(=N)N)NC(=O)[C@H](CC(C)C)NC(=O)[C@H](CCC(N)=O)NC1=O)C(C)C)[C@@H](C)CC [Peptide 23] (Ac-W[Nle]RNQFAAI[Nle]RVHG[S5]QLR[S5]LANK-OH; staple 15-19),57.5 ± 0.9 °C
6,CCCC[C@H](NC(=O)[C@H](Cc1c[nH]c2ccccc12)NC(C)=O)C(=O)N[C@@H](CCCNC(=N)N)C(=O)N[C@@H](CC(N)=O)C(=O)N[C@@H](CCC(N)=O)C(=O)N[C@@H](Cc1ccccc1)C(=O)N[C@@H](CCCNC(=N)N)C(=O)N[C@@H](C)C(=O)N[C@H](C(=O)N[C@@H](CCCC)C(=O)N[C@@H](CCCNC(=N)N)C(=O)N[C@H](C(=O)N[C@@H](Cc1c[nH]cn1)C(=O)NCC(=O)N[C@@H](CC(N)=O)C(=O)N[C@@H](CCC(N)=O)C(=O)N[C@@H](CC(C)C)C(=O)N[C@@H](CCCNC(=N)N)C(=O)N[C@@H](CCC(=O)O)C(=O)N[C@@H](CC(C)C)C(=O)N[C@@H](C)C(=O)N[C@@H](CC(N)=O)C(=O)N[C@@H](CCCCN)C(=O)O)C(C)C)[C@@H](C)CC [Peptide 24] (Ac-W[Nle]RNQFRAI[Nle]RVHGNQLRELANK-OH),54.3 ± 1.6 °C
7,CCCC[C@H](NC(=O)[C@H](Cc1c[nH]c2ccccc12)NC(C)=O)C(=O)N[C@@H](CCCNC(=N)N)C(=O)N[C@@H](CC(N)=O)C(=O)N[C@@H](CCC(N)=O)C(=O)N[C@@H](Cc1ccccc1)C(=O)N[C@@H](CCCNC(=N)N)C(=O)N[C@@H](C)C(=O)N[C@H](C(=O)N[C@@H](CCCC)C(=O)N[C@@H](CCCNC(=N)N)C(=O)N[C@H](C(=O)N[C@@H](Cc1c[nH]cn1)C(=O)NCC(=O)N[C@@]1(C)CCCC=CCCC[C@@](C)(C(=O)N[C@@H](CC(C)C)C(=O)N[C@@H](C)C(=O)N[C@@H](CC(N)=O)C(=O)N[C@@H](CCCCN)C(=O)O)NC(=O)[C@H](CCCNC(=N)N)NC(=O)[C@H](CC(C)C)NC(=O)[C@H](CCC(N)=O)NC1=O)C(C)C)[C@@H](C)CC [Peptide 25] (Ac-W[Nle]RNQFRAI[Nle]RVHG[S5]QLR[S5]LANK-OH; staple 15-19),56.4 ± 3.0 °C
8,CCCC[C@H](NC(=O)[C@H](Cc1c[nH]c2ccccc12)NC(C)=O)C(=O)N[C@@H](CCCNC(=N)N)C(=O)N[C@@H](CC(N)=O)C(=O)N[C@@H](CCC(=O)O)C(=O)N[C@@H](Cc1ccccc1)C(=O)N[C@@H](C)C(=O)N[C@@H](C)C(=O)N[C@H](C(=O)N[C@@H](CCCC)C(=O)N[C@@H](CCCNC(=N)N)C(=O)N[C@H](C(=O)N[C@@H](Cc1c[nH]cn1)C(=O)NCC(=O)N[C@@H](CC(N)=O)C(=O)N[C@@H](CCC(N)=O)C(=O)N[C@@H](CC(C)C)C(=O)N[C@@H](CCCNC(=N)N)C(=O)N[C@@H](CCC(=O)O)C(=O)N[C@@H](CC(C)C)C(=O)N[C@@H](C)C(=O)N[C@@H](CC(N)=O)C(=O)N[C@@H](CCCCN)C(=O)O)C(C)C)[C@@H](C)CC [Peptide 26] (Ac-W[Nle]RNEFAAI[Nle]RVHGNQLRELANK-OH),62.9 ± 0.3 °C
9,CCCC[C@H](NC(=O)[C@H](Cc1c[nH]c2ccccc12)NC(C)=O)C(=O)N[C@@H](CCCNC(=N)N)C(=O)N[C@@H](CC(N)=O)C(=O)N[C@@H](CCC(=O)O)C(=O)N[C@@H](Cc1ccccc1)C(=O)N[C@@H](CCCNC(=N)N)C(=O)N[C@@H](C)C(=O)N[C@H](C(=O)N[C@@H](CCCC)C(=O)N[C@@H](CCCNC(=N)N)C(=O)N[C@H](C(=O)N[C@@H](Cc1c[nH]cn1)C(=O)NCC(=O)N[C@@H](CC(N)=O)C(=O)N[C@@H](CCC(N)=O)C(=O)N[C@@H](CC(C)C)C(=O)N[C@@H](CCCNC(=N)N)C(=O)N[C@@H](CCC(=O)O)C(=O)N[C@@H](CC(C)C)C(=O)N[C@@H](C)C(=O)N[C@@H](CC(N)=O)C(=O)N[C@@H](CCCCN)C(=O)O)C(C)C)[C@@H](C)CC [Peptide 28] (Ac-W[Nle]RNEFRAI[Nle]RVHGNQLRELANK-OH),62.1 ± 0.2 °C
10,CCCC[C@H](NC(=O)[C@H](Cc1c[nH]c2ccccc12)NC(C)=O)C(=O)N[C@@]1(C)CCCC=CCCC[C@@](C)(C(=O)N[C@@H](C)C(=O)N[C@H](C(=O)N[C@@H](CCCC)C(=O)N[C@@H](C)C(=O)N[C@H](C(=O)N[C@@H](Cc2c[nH]cn2)C(=O)NCC(=O)N[C@@H](CCCNC(=N)N)C(=O)N[C@@H](CCC(N)=O)C(=O)N[C@@H](CC(C)C)C(=O)N[C@@H](CCCNC(=N)N)C(=O)N[C@@H](CCCNC(=N)N)C(=O)N[C@@H](CC(C)C)C(=O)N[C@@H](C)C(=O)N[C@@H](CCCNC(=N)N)C(=O)N[C@@H](CCCCN)C(=O)O)C(C)C)[C@@H](C)CC)NC(=O)[C@H](Cc2ccccc2)NC(=O)[C@H](CCC(=O)O)NC(=O)[C@H](CC(N)=O)NC1=O [Peptide 34] (Ac-W[Nle][S5]NEF[S5]AI[Nle]AVHGRQLRRLARK-OH; staple 3-7),58.9 ± 1.1 °C
